Results as given in patent publication US9867826B2, “Heterocycles as modulators of kinase activity” (Merck Patent GmbH, priority 2013, dated 2018).

How the values were obtained:
[1] = molecular target: P70S6K (T412E mutant) (Homo sapiens (Human), UniProt P23443, T412E); experiment: P70S6K enzyme assay; assay type: biochemical; settings: 24 μM ATP
Procedure: P70S6K inhibitor compounds were diluted and plated in 96 well plates. A reaction mixture including the following components was then added to the compound plate to initiate the enzyme reaction; P70S6K (3 nM, T412E mutant, Millipore) was mixed with 24 μM ATP in an assay buffer containing 100 mM Hepes (pH 7.5), 5 mM MgCl2, 1 mM DTT, 0.015% Brij and 1 μM of the substrate peptide FITC-AHA-AKRRRLSSLRA-OH (derived from the S6 ribosomal protein sequence, FITC=fluorescein isothiocyanate, AHA=6-aminohexanoic acid). The reaction was incubated for 90 min at 25° C., before the addition of 10 mM EDTA to stop the reaction. The proportion of substrate and product (phosphorylated) peptide was analysed on a Caliper Life Sciences Lab Chip 3000, using a pressure of −1.4 psi, and upstream and downstream voltages of −3000 and −700 respectively. Product peaks were resolved before substrate peaks on the resulting chromatograms.

[2] = molecular target: His-AKT (Full Length) (Homo sapiens (Human), UniProt P31749); experiment: AKT enzyme assay; assay type: biochemical; settings: 160 uM ATP
Sequence of His-AKT (Full Length) (P31749 whole entry): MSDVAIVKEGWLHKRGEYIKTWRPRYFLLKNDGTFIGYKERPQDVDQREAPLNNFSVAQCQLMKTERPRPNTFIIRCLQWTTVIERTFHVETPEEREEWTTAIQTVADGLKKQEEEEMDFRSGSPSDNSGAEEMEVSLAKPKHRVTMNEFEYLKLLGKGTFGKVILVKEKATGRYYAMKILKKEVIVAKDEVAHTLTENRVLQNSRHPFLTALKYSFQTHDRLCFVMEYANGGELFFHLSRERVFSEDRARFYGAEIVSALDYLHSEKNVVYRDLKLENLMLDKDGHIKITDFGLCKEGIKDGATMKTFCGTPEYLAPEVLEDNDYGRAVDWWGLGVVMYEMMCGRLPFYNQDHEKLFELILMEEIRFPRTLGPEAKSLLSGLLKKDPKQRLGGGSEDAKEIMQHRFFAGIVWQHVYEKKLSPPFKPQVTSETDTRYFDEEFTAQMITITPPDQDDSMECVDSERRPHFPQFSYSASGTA
Procedure: A TTP Mosquito liquid handling instrument was used to place 125 nl of the appropriate concentration of inhibitor in 100% DMSO (for a dose response curve calculation) into each well of a 384-well plate. To this reaction components were added to a final volume of 12.5 μl: • 0.1 ng/μl His-AKT (Full Length), (Invitrogen, Part # P2999, Lot #641228C). • 160 uM ATP (Fluka, 02055) • 1 mM DTT (Sigma, D0632) • 1 mM MgCl2 (Sigma, M1028) • 1 μM substrate peptide (sequence FITC-AHA-GRPRTSSFAEG-NH2), synthesized by Tufts Peptide Synthesis service. • 100 mM HEPES pH 7.5 (Calbiochem, 391338) • 0.015% Brij-35 (Sigma, B4184)
The reaction was incubated for 90 min at 25 C., and then stopped by the addition of 70 μl of Stop buffer (100 mM HEPES pH 7.5, 0.015% Brij-35, 10 mM EDTA (Sigma, E7889)).
The plate was read on a Caliper LC 3000 in an Off-Chip mobility shift assay format, using the following parameters for a 12-sipper chip: screening pressure −2.3 psi, upstream voltage −500, and downstream voltage −3000. These conditions caused unphosphorylated substrate and phosphorylated product peptide to resolve as separate peaks allowing direct measurement of percentage of conversion of substrate to product.
The percent conversion was plotted against concentration of inhibitor to produce a sigmoidal dose response curve, from which an IC50 was calculated.

Sequence of P70S6K (T412E mutant) (P23443 whole entry T412E): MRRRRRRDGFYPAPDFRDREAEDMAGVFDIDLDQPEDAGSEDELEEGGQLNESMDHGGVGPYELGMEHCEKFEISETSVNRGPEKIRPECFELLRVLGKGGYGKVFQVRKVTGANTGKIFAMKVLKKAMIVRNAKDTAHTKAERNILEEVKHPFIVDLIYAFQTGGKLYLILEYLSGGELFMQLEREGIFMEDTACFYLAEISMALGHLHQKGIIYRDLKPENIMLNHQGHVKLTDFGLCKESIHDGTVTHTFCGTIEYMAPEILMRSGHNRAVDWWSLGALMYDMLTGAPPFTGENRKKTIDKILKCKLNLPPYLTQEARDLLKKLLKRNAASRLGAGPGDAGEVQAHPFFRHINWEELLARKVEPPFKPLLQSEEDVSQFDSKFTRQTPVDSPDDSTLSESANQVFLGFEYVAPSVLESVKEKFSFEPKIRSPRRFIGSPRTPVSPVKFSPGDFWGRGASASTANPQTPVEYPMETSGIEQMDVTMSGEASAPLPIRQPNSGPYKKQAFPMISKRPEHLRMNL

SMILES | IC50 [1] [nM] | IC50 [2] [nM]
CC(C)c1c(N)ncnc1N1CC[C@@H](c2nc(-c3ccc(F)c(C(F)(F)F)c3)cn2CCN)[C@@H](F)C1 (racemic) [Compound 33, 6-{cis-4-[1-(2-Amino-ethyl)-4-(4-fluoro-3-trifluoromethyl-phenyl)-1H-imidazol-2-yl]-3-fluoro-piperidin-1-yl}-5-isopropyl-pyrimidin-4-ylamine] | 1 to 10 | 1 to 10
Cc1cc(-c2cn(CCNC(C)C)c([C@@H]3CCN(c4ncnc(N)c4C(C)C)C[C@@H]3F)n2)ccc1F (racemic) [Compound 37, 6-{cis-3-Fluoro-4-[4-(4-fluoro-3-methyl-phenyl)-1-(2-isopropylamino-ethyl)-1H-imidazol-2-yl]-piperidin-1-yl}-5-isopropyl-pyrimidin-4-ylamine] | 1 to 10 | 1 to 10
CNCCn1cc(-c2ccc(F)c(C)c2)nc1[C@@H]1CCN(c2ncnc(N)c2C(C)C)C[C@@H]1F (racemic) [Compound 38, 6-{cis-3-Fluoro-4-[4-(4-fluoro-3-methyl-phenyl)-1-(2-methylamino-ethyl)-1H-imidazol-2-yl]-piperidin-1-yl}-5-isopropyl-pyrimidin-4-ylamine] | 1 to 10 | 1 to 10
Cc1cc(-c2cn(CCN3CCC3)c([C@@H]3CCN(c4ncnc(N)c4OC(C)C)C[C@@H]3F)n2)ccc1F (racemic) [Compound 39, 6-{cis-4-[1-(2-Azetidin-1-yl-ethyl)-4-(4-fluoro-3-methyl-phenyl)-1H-imidazol-2-yl]-3-fluoro-piperidin-1-yl}-5-isopropoxy-pyrimidin-4-ylamine] | 1 to 10 | 1 to 10
Cc1cc(-c2cn(CC3CNC3)c([C@@H]3CCN(c4ncnc(N)c4C(C)C)C[C@@H]3F)n2)ccc1F (racemic) [Compound 41, 6-{cis-4-[1-Azetidin-3-ylmethyl-4-(4-fluoro-3-methyl-phenyl)-1H-imidazol-2-yl]-3-fluoro-piperidin-1-yl}-5-isopropyl-pyrimidin-4-ylamine] | 1 to 10 | 1 to 10
N#Cc1c[nH]c2ncnc(N3CC[C@@H](c4nc(-c5ccnc(C(F)(F)F)c5)cn4CCN4CCC4)[C@@H](F)C3)c12 (racemic) [Compound 43] | 1 to 10 | 1 to 10
CN(C)CCn1cc(-c2ccc(F)c(C(F)(F)F)c2)nc1[C@@H]1CCN(c2ncnc(N)c2Cl)C[C@@H]1F (single isomer, unassigned) [Compound 29] | 1 to 10 | 1 to 10
CN(C)CCn1cc(-c2ccc(F)c(C(F)(F)F)c2)nc1[C@H]1CCN(c2ncnc(N)c2Cl)C[C@H]1F (single isomer, unassigned) [Compound 30] | 1 to 10 | > 10
CC(C)c1c(N)ncnc1N1CC[C@H](c2nc(-c3ccc(F)c(C(F)(F)F)c3)cn2CCN(C)C)[C@H](F)C1 (single isomer, unassigned) [Compound 31] | 1 to 10 | > 10
CC(C)c1c(N)ncnc1N1CC[C@@H](c2nc(-c3ccc(F)c(C(F)(F)F)c3)cn2CCN(C)C)[C@@H](F)C1 (single isomer, unassigned) [Compound 32] | 1 to 10 | 1 to 10
Cc1cc(-c2cn(CCN3CCC3)c([C@H]3CCN(c4ncnc(N)c4C(C)C)C[C@H]3F)n2)ccc1F (single isomer, unassigned) [Compound 34] | 1 to 10 | > 10
Cc1cc(-c2cn(CCN3CCC3)c([C@@H]3CCN(c4ncnc(N)c4C(C)C)C[C@@H]3F)n2)ccc1F (single isomer, unassigned) [Compound 35] | 1 to 10 | 1 to 10
Cc1cc(-c2cn(CCN3CCC3)c(C3(O)CCN(c4ncnc(N)c4C#N)CC3)n2)ccc1F [Compound 44, 4-Amino-6-{4-[1-(2-azetidin-1-yl-ethyl)-4-(4-fluoro-3-methyl-phenyl)-1H-imidazol-2-yl]-4-hydroxy-piperidin-1-yl}-pyrimidine-5-carbonitrile] | 1 to 10 | 1 to 10
Cc1cc(-c2cn(CCN3CCC3)c(C3(O)CCN(c4ncnc(N)c4C(C)C)CC3)n2)ccc1F [Compound 45, 1-(6-Amino-5-isopropyl-pyrimidin-4-yl)-4-[1-(2-azetidin-1-yl-ethyl)-4-(4-fluoro-3-methyl-phenyl)-1H-imidazol-2-yl]-piperidin-4-ol] | 1 to 10 | 1 to 10
CCc1c(N)ncnc1N1CCC(O)(c2nc(-c3ccc(F)c(C)c3)cn2CCN2CCC2)CC1 [Compound 46, 1-(6-Amino-5-ethyl-pyrimidin-4-yl)-4-[1-(2-azetidin-1-yl-ethyl)-4-(4-fluoro-3-methyl-phenyl)-1H-imidazol-2-yl]-piperidin-4-ol] | 1 to 10 | 1 to 10
Cc1cc(-c2cn(CCN3CCC3)c(C3(O)CCN(c4ncnc(N)c4Cl)CC3)n2)ccc1F [Compound 47, 1-(6-Amino-5-chloro-pyrimidin-4-yl)-4-[1-(2-azetidin-1-yl-ethyl)-4-(4-fluoro-3-methyl-phenyl)-1H-imidazol-2-yl]-piperidin-4-ol] | 1 to 10 | 1 to 10
Cc1cc(-c2cn(CCN3CCC3)c(C3CCN(c4ncnc(N)c4C#N)CC3(F)F)n2)ccc1F (stereo not shown) [Compound 48, 4-Amino-6-{4-{1-(2-azetidin-1-yl-ethyl)-4-(4-fluoro-3-methyl-phenyl)-1H-imidazol-2-yl}-3,3-difluoro-piperidin-1-yl}-pyrimidine-5-carbonitrile] | 1 to 10 | 1 to 10

Other lines, results leading:

IC50 [1] [nM] | IC50 [2] [nM] | SMILES
1 to 10 | 1 to 10 | NCCn1cc(-c2ccc(F)c(C(F)(F)F)c2)nc1[C@@H]1CCN(c2ncnc(N)c2Cl)C[C@@H]1F (racemic) [Compound 36]
1 to 10 | 1 to 10 | N#Cc1c[nH]c2ncnc(N3CC[C@@H](c4nc(-c5ccc(F)c(C(F)(F)F)c5)cn4CCN4CCC4)[C@@H](F)C3)c12 (racemic) [Compound 42]
1 to 10 | 1 to 10 | Cc1cc(-c2cn(CCN3CCC3)c([C@@H]3CCN(c4ncnc(N)c4C(N)=O)C[C@@H]3F)n2)ccc1F (relative stereo) [Compound 19, 4-Amino-6-{cis-4-[1-(2-azetidin-1-yl-ethyl)-4-(4-fluoro-3-methyl-phenyl)-1H-imidazol-2-yl]-3-fluoro-piperidin-1-yl}-pyrimidine-5-carboxylic acid amide]
1 to 10 | 1 to 10 | NC(=O)c1c(N)ncnc1N1CC[C@@H](c2nc(-c3ccc(F)c(C(F)(F)F)c3)cn2CCN2CCC2)[C@@H](F)C1 (single isomer, unassigned) [Compound 3]
1 to 10 | > 10 | NC(=O)c1c(N)ncnc1N1CC[C@H](c2nc(-c3ccc(F)c(C(F)(F)F)c3)cn2CCN2CCC2)[C@H](F)C1 (single isomer, unassigned) [Compound 4]
1 to 10 | 1 to 10 | CN(C)CCn1cc(-c2ccc(F)c(C(F)(F)F)c2)nc1[C@H]1CCN(c2ncnc(N)c2C(N)=O)C[C@H]1F (single isomer, unassigned) [Compound 20]
1 to 10 | > 10 | CN(C)CCn1cc(-c2ccc(F)c(C(F)(F)F)c2)nc1[C@@H]1CCN(c2ncnc(N)c2C(N)=O)C[C@@H]1F (single isomer, unassigned) [Compound 21]
1 to 10 | 1 to 10 | CCOc1c(N)ncnc1N1CC[C@@H](c2nc(-c3ccc(F)c(C(F)(F)F)c3)cn2CCN2CCC2)[C@@H](F)C1 (single isomer, unassigned) [Compound 22]
1 to 10 | 1 to 10 | CCOc1c(N)ncnc1N1CC[C@H](c2nc(-c3ccc(F)c(C(F)(F)F)c3)cn2CCN2CCC2)[C@H](F)C1 (single isomer, unassigned) [Compound 23]
1 to 10 | 1 to 10 | Cc1cc(-c2cn(CCN3CCC3)c([C@@H]3CCN(c4ncnc(N)c4C(N)=O)C[C@@H]3F)n2)ccc1F (single isomer, unassigned) [Compound 27]
> 10 | > 10 | Cc1cc(-c2cn(CCN3CCC3)c([C@H]3CCN(c4ncnc(N)c4C(N)=O)C[C@H]3F)n2)ccc1F (single isomer, unassigned) [Compound 28]
1 to 10 | 1 to 10 | N#Cc1c(N)ncnc1N1CC[C@@H](c2nc(-c3ccc(F)c(C(F)(F)F)c3)cn2CCN2CCC2)[C@@H](F)C1 (single isomer, unassigned) [Compound 40]
